Test results published in ChEMBL document CHEMBL1148509, “Design and semisynthesis of novel fredericamycin A derivatives with an improved antitumor profile” (Bioorg Med Chem Lett, 2006).

Legend:
[1] = tested on: Panel (10 carcinoma cell lines); assay: Inhibition of cell viability of panel of 10 cell lines (LCL H460, MACL MCF7, LXFL 529L, LXFA 629L, MEXF 462NL, MEXF 514L, MAXF 401NL, RXF 944L, RXF 486L, UXF 1138L) at 1 ug/mL; assay type: functional; conditions: Homo sapiens
[2] = tested on: Panel (12 tumour cell lines); assay: Cytotoxicity against panel of 12 cell lines (LCL H460, MACL MCF7, LXFL 529L, LXFA 629L, MEXF 462NL, MEXF 514L, MAXF 401NL, RXF 944L, RXF 486L, UXF 1138L, PR PC3M, PRCL 22RV1); assay type: functional; conditions: Homo sapiens
UXF1138 = assay: Antitumor activity against human UXF1138 cell line xenografted in nude mouse at 0.15 mg/kg/day, ip after 7 days; conditions: route intraperitoneal
Mus musculus [3] = assay: Toxicity in nude mouse xenografted with human UXF1138 at 1 mg/kg/day; assay type: organism-based; conditions: in vivo
Mus musculus [4] = assay: Decrease in body weight of nude mouse xenografted with human UXF1138 at 0.15 mg/kg/day, ip after 7 days; assay type: functional; design: scale not given: the % may be the effect or the level left; conditions: route intraperitoneal
Mus musculus [5] = assay: Toxicity in nude mouse xenografted with human UXF1138 at 3 mg/kg/day; assay type: organism-based; conditions: in vivo
Mus musculus [6] = assay: Toxicity in nude mouse xenografted with human UXF1138 at 0.3 mg/kg/day; assay type: organism-based; conditions: in vivo

Row | SMILES | inhibition at 1 µg/mL [1] [%] | IC70 [2] [nM] | also measured
1 | COC1=CC(=O)c2c(O)c3c(c(O)c2C1=O)C(=O)[C@]1(CCc2c1c(O)c1c(O)nc(/C=N/OCCN4CCOCC4)cc1c2Br)C3=O | 88 | 101 | 
2 | COC1=CC(=O)c2c(O)c3c(c(O)c2C1=O)C(=O)[C@]1(CCc2c1c(O)c1c(O)nc(C=O)cc1c2Cl)C3=O | 25 |  | 
3 | C/C=C/C=C/c1cc2c(Cl)c3c(c(O)c2c(O)n1)[C@@]1(CC3)C(=O)c2c(O)c3c(c(O)c2C1=O)C(=O)C(OC)=CC3=O | 91 | 14 | 
4 | COC1=CC(=O)c2c(O)c3c(c(O)c2C1=O)C(=O)[C@]1(CCc2c1c(O)c1c(O)nc(C=O)cc1c2Br)C3=O | 42 |  | 
5 | C/C=C/C=C/c1cc2cc3c(c(O)c2c(O)n1)[C@@]1(CC3)C(=O)C2=C(C(=O)c3c(O)c(OCCN(C)C)cc(O)c3C2=O)C1=O | 94 | 1020 | 
6 | COC1=CC(=O)c2c(O)c3c(c(O)c2C1=O)C(=O)[C@]1(CCc2cc4cc(C(O)C(O)C(O)C(C)O)nc(O)c4c(O)c21)C3=O (stereo partly drawn) | 85 | 186 | 
7 | COC1=CC(=O)c2c(O)c3c(c(O)c2C1=O)C(=O)[C@]1(CCc2c1c(O)c1c(O)nc(/C=N/N4CCN(C)CC4)cc1c2Br)C3=O | 73 | 658 | 
8 | COC1=CC(=O)c2c(O)c3c(c(O)c2C1=O)C(=O)[C@]1(CCc2c1c(O)c1c(O)nc(/C=C/c4csc(NC(C)=O)n4)cc1c2Br)C3=O | 83 | 512 | 
9 | COC1=CC(=O)c2c(O)c3c(c(O)c2C1=O)C(=O)[C@]1(CCc2c1c(O)c1c(O)nc(/C=N/OC(C)C)cc1c2Br)C3=O | 91 | 74 | 
10 | COC1=CC(=O)c2c(O)c3c(c(O)c2C1=O)C(=O)[C@]1(CCc2c1c(O)c1c(O)nc(/C=C/c4csc(C)n4)cc1c2Br)C3=O | 85 | 124 | 
11 | C/C=C/C=C/c1cc2c(Br)c3c(c(O)c2c(O)n1)[C@@]1(CC3)C(=O)C2=C(C(=O)c3c(O)c(NC4CC4)cc(O)c3C2=O)C1=O | 97 | 96 | 
12 | C/C=C/C=C/c1cc2c(Br)c3c(c(O)c2c(O)n1)[C@@]1(CC3)C(=O)C2=C(C(=O)c3c(O)c(NCCCC)cc(O)c3C2=O)C1=O | 94 | 302 | 
13 | C/C=C/C=C/c1cc2c(Br)c3c(c(O)c2c(O)n1)[C@@]1(CC3)C(=O)c2c(O)c3c(c(O)c2C1=O)C(=O)C(OCC)=CC3=O | 97 | 160 | 
14 | C/C=C/C=C/c1cc2cc3c(c(O)c2c(O)n1)[C@@]1(CC3)C(=O)C2=C(C(=O)c3c(O)c(N(C)C)cc(O)c3C2=O)C1=O | 96 | 306 | 
15 | COC1=CC(=O)c2c(O)c3c(c(O)c2C1=O)C(=O)[C@]1(CCc2c1c(O)c1c(O)nc(/C=N/OCc4ccccc4)cc1c2Br)C3=O | 91 | 50 | 
16 | COC1=CC(=O)c2c(O)c3c(c(O)c2C1=O)C(=O)[C@]1(CCc2cc4cc(/C=C/C(C)=O)nc(O)c4c(O)c21)C3=O | 59 |  | 
17 | C/C=C/C=C/c1cc2cc3c(c(O)c2c(O)n1)[C@@]1(CC3)C(=O)C2=C(C(=O)c3c(O)c(N4CCOCC4)cc(O)c3C2=O)C1=O | 98 | 77 | 
18 | C/C=C/C=C/c1cc2c(I)c3c(c(O)c2c(O)n1)[C@@]1(CC3)C(=O)c2c(O)c3c(c(O)c2C1=O)C(=O)C(OC)=CC3=O | 93 | 11 | Activity (UXF1138): 51%; Activity (Mus musculus [3]): Toxic; Activity (Mus musculus [4]): -3.1%; Activity (Mus musculus [5]): Toxic; Activity (Mus musculus [6]): Non-toxic
19 | COC1=CC(=O)c2c(O)c3c(c(O)c2C1=O)C(=O)[C@]1(CCc2c1c(O)c1c(O)nc(/C=C/c4csc(N)n4)cc1c2Br)C3=O | 77 | 612 | 
20 | C/C=C/C=C/c1cc2c(Br)c3c(c(O)c2c(O)n1)[C@@]1(CC3)C(=O)c2c(O)c3c(c(O)c2C1=O)C(=O)C(OC)=CC3=O | 92 | 8.1 | 
21 | C/C=C/C=C/c1cc2c(F)c3c(c(O)c2c(O)n1)[C@@]1(CC3)C(=O)c2c(O)c3c(c(O)c2C1=O)C(=O)C(OC)=CC3=O | 91 | 20 | 
22 | C/C=C/C=C/c1cc2cc3c(c(O)c2c(O)n1)[C@@]1(CC3)C(=O)C2=C(C(=O)c3c(O)c(NC(C)C)cc(O)c3C2=O)C1=O | 91 | 634 | 
23 | COC1=CC(=O)c2c(O)c3c(c(O)c2C1=O)C(=O)[C@]1(CCc2cc4cc(C=O)nc(O)c4c(O)c21)C3=O | 31 |  | 
24 | CC[C@@]1(O)C(=O)OCc2c1cc1n(c2=O)Cc2cc3ccccc3nc2-1 [CAMPTOTHECIN] |  | 8.6 | 
25 | COc1cccc2c1C(=O)c1c(O)c3c(c(O)c1C2=O)C[C@@](O)(C(=O)CO)C[C@@H]3O[C@H]1C[C@H](N)[C@H](O)[C@H](C)O1 [DOXORUBICIN] | 91 | 39 | 
26 | C/C=C/C=C/c1cc2cc3c(c(O)c2c(=O)[nH]1)[C@@]1(CC3)C(=O)c2c(O)c3c(c(O)c2C1=O)C(=O)C(OC)=CC3=O [FDM A] | 82 | 517 | 
27 | CC(=O)O[C@H]1C(=O)[C@@]2(C)[C@H]([C@H](OC(=O)c3ccccc3)[C@]3(O)C[C@H](OC(=O)[C@H](O)[C@@H](NC(=O)c4ccccc4)c4ccccc4)C(C)=C1C3(C)C)[C@]1(OC(C)=O)CO[C@@H]1C[C@@H]2O [PACLITAXEL] |  | 0.7 | 
